Measured values reported in patent publication US20240274226A1, “MOLECULAR EVALUATION METHODS” (UNIVERSITY COLLEGE DUBLIN, priority 2021, published 2024).
Values joined by “and” are separate entries in the source; they are usually repeats but may differ in a detail not shown here. Equal entries are not always repeated.

Tests used:
SH-SY5Y-TrkA [1] = assay: cSTAR analysis of RPPA perturbation data (STV dot product P, DPD output S), TrkA cells; assay type: cell-based, human; details: ligand NGF, 45 minutes, calculated from RPPA data
Text: (§1) Thus, we use this dimensionality reduced STV for estimating the network effects and biological outcomes of experimental perturbations. For each perturbation we determine a perturbation vector that connects the centroids of the point clouds that have been obtained before and after the perturbation. This vector changes the cell phenotype when it pushes the centroid of the original point cloud across the plane that separates different cell states, stabilizes a cell state when moving the centroid away from the separation plane, or has no effect when it is (nearly) parallel to the separation plane.
(§2) These outcomes can be quantified by determining the dot product (P) of the perturbation vector and the dimensionality reduced STV.
(§3) For a correct interpretation of perturbation data using the STV, we have to exclude the analytes that composed the modules of our core signaling network. Accordingly, the dimensionality of the molecular dataspace where the STV and perturbation vectors are calculated is reduced from 115 to 70, due to 45 analytes from Table S1A, related to the five proteins flagged in Table S3, being allocated to core network components, leaving the remaining 70 analytes to defined the reduced dimensionality dataspace.
(§4) Let A with the radius-vector {right arrow over (x)}A be the centroid of the point cloud Ai, corresponding to the unperturbed state 1. Let Apert with the radius-vector {right arrow over (x)}Apert be the centroid of the point cloud (Ai^pert), corresponding to the perturbed state 1. Then the perturbation vector is defined as,
(§5) The projection P of the perturbation vector {right arrow over (P)} on the STV ({right arrow over (s)}) is obtained as a dot product of these two vectors,
(§6) In the molecular dataspace, we consider the STV as a vector {right arrow over (s)} of unit length directed from a centroid of a differentiation TrkA point cloud to a centroid of a proliferation TrkB point cloud. We now define the output of the DPD module as the S value,
(§7) In this definition, the direction of the vector {right arrow over (n)}, which is orthogonal to the separation hyperplane, […]. Then, the DPD value (S) is positive for proliferation TrkB points and negative for differentiation TrkA points.
(§8) Using the STV ({right arrow over (s)}), a perturbation vector ({right arrow over (P)}) and the unit length vector ({right arrow over (n)}) orthogonal to the separation hyperplane, we can calculate how the DPD value changes following each inhibitor perturbation. The DPD values, determined for the centroids of unperturbed (A) and perturbed (Apert) states, S and Spert, respectively, are the following (see Eq. 9),
(§9) In order to reconstruct the posterior network, we used the drug perturbations described in Table 1, measuring 10 and 45 minute timepoints in TrkA and TrkB cells stimulated with NGF or BDNF, respectively.

SH-SY5Y-TrkB [2] = assay: Differentiation of TrkB cells, live cell images at 72 hours; assay type: cell-based, human; details: for Experimentally measured percentage of differentiated cells: SH-SY5Y-TrkB, ligand BDNF; for Experiment (biological outcome): SY5Y-TrkB ± BDNF
Method: FIG. 45 is a live cell image of TrkB cells stimulated with BDNF taken at 72 hours. FIG. 46 is a live cell image of BDNF-stimulated TrkB cells treated with 0.2 μM Trametinib taken at 72 hours. FIG. 47 is a live cell image of BDNF-stimulated TrkB cells treated with 2.5 μM Gefitinib taken at 72 hours. […] FIG. 49 is an additional experiment, being a live cell image of BDNF-stimulated TrkB cells treated with a combination of 2.5 μM Gefitinib and 0.05 μM Trametinib taken at 72 hours.

SH-SY5Y-TrkA [3] = assay: Differentiation of TrkA cells, live cell images at 72 hours; details: for Experimentally measured percentage of differentiated cells: SH-SY5Y-TrkA, ligand NGF; for Experiment (biological outcome): SY5Y-TrkA ± NGF
Method: SH-SY5Y cells stably expressing TrkA or TrkB receptors were stimulated with 100 ng/ml NGF or BDNF, respectively. Differentiation and proliferation were assessed 72 hours after growth factor treatment.
In FIGS. 35A-F, the live cell images are accompanied by bar plots showing the percentage of differentiated cells. The percentages were obtained by examining three images for each set of conditions, and counting the total number of cells and the number of differentiated cells.
FIG. 52 is a bar plot showing the percentage of differentiated cells for different treatments, measured by counting cells in images and calculating the ratio of differentiated cells to total cells.

SH-SY5Y-TrkB [4] = assay: cSTAR analysis of RPPA perturbation data (STV dot product P, DPD output S), TrkB cells; assay type: cell-based, human; details: for Change in the DPD output ΔS / DPD output S: SH-SY5Y-TrkB, ligand BDNF, 45 minutes, calculated from RPPA data
Text: as §1, §2
TrkB cells were treated with the p90RSK inhibitor BI-D1870. Data points were acquired corresponding to 45 min 100 ng/ml GF stimulation, and these were projected into the first 3 principal components in order to calculate the point cloud centroids. For clarity, only the centroids are shown in FIG. 7, corresponding to: TrkA 45 minute NGF, TrkB 45 minute BDNF before perturbation, and the perturbed centroid TrkB RSKi 45 minute BDNF.
as §3, §4, §5, §6, §7, §8, §9

TrkA cells = assay: RPPA phosphoproteomics (raw fluorescent intensity) in TrkA cells stimulated with ligand and treated with inhibitors; assay type: cell-based, human
Text: (§10) Experiments used a custom made RPPA with 115 validated antibodies listed in Table S1A below to interrogate the activities of signaling pathways involved in TrkA/B signaling (Schramm et al., 2005), including MAPK (RAS-ERK, JNK, p38), PI3 kinase (AKT, mTORC1/2), JAK-STAT, PLCγ-PKC, TGFβ-SMAD, Wnt, cyclic-AMP, cell cycle (CDK1, Cyclins, Rb, p53, p21^WAF), apoptosis (BAX, BCL2, BCLx, Caspase 3), transcription factor (MYC, NFκB, JUN), and tyrosine kinase (SRC, EGFR, PDGFR, IGFR) pathways. In addition to the 115 antibodies, three controls are also included, Mouse 1, 2 and 3.
(§11) For each antibody, RPPA phosphoproteomics data was collected, measured as raw fluorescent intensity values in TrkA and TrkB cells stimulated with a ligand and treated with different inhibitors. A sample of the data is reproduced in Table S1B below, showing the measured fluorescent intensity values for a small sample of antibodies and a small sample of treatment and stimulation conditions. The full data set, including replicated experiments, contains 118 rows (one per antibody) and 144 columns (each containing 118 measurements and relating to an experimental set of treatment and stimulation conditions, which include replicated experiments).
(§12) In terms of the computational approach to processing the acquired data, each analyte level was first normalized on the GAPDH level, and then on the value of the same analyte in the absence of inhibitors and ligand stimulation to obtain fold-changes.
(§13) FIGS. 25-30 show the simulated time courses with the experimental data points (dots with error bars) imposed on the model predictions (curves) for a number of inhibitors: S6K inhibitor (1 μM) FIG. 25A-F; TRK inhibitor (5 μM) FIG. 26A-F; MEK inhibitor (0.5 μM) FIG. 27 A-F; AKT inhibitor (1 μM) FIG. 28A-F; JNK inhibitor (1 μM) FIG. 29A-F; and RSK inhibitor (1 μM) FIG. 30A-F. The TrkA and TrkB cells were treated with the respective inhibitor, and stimulated with 100 ng/ml NGF and BDNF, respectively. Dashed lines are the time courses in the absence of inhibitor. Error bars represent SEM and are calculated using 3 biological replicates.

phospho-Trk [5] = assay: Phospho-Trk activity by Western blotting, TrkA cells; assay type: cell-based, human; details: single replicates
Method: (§14) These antibodies detect phosphorylation sites that change protein activities or protein abundances. We measured pathway activities in untreated cells and cells treated with NGF (TrkA ligand) or BDNF (TrkB ligand) for 10 or 45 minutes. After normalization we calculated the fold changes in protein phosphorylation levels or abundances producing a data point for each protein.

phospho-Trk [6] = assay: Phospho-Trk activity by Western blotting, TrkB cells; assay type: cell-based, human; details: single replicates
Method: as §14

TrkB cells = assay: RPPA phosphoproteomics (raw fluorescent intensity) in TrkB cells stimulated with ligand and treated with inhibitors; assay type: cell-based, human; details: No GF stimulation
Text: as §10, §11, §12, §13

## CC[n+]1c(/C=C/N(C)c2ccccc2)n(-c2ccccc2)c2ccc(-c3nc4ccccc4s3)cc21.[I-] [AKT inhibitor, AKT inhibitor IV]
SH-SY5Y-TrkA [1]
  Change in the DPD output ΔS: −1.3 ± 0.6
  DPD output S: −3.6 ± 0.5
SH-SY5Y-TrkB [2]; 72 hours
  Experimentally measured percentage of differentiated cells: 34.3% ± 0.8%
SH-SY5Y-TrkA [3]; 72 hours
  Experimentally measured percentage of differentiated cells: 62% ± 3%
SH-SY5Y-TrkB [4]
  Change in the DPD output ΔS: −1.5 ± 1.0
  DPD output S: 4.3 ± 0.8

## COc1cc2ncnc(Nc3ccc(F)c(Cl)c3)c2cc1OCCCN1CCOCC1 [Gefitinib]
SH-SY5Y-TrkB [2]; BDNF-stimulated, 72 hours, combination 1.25 μM Gefitinib + 0.1 μM Trametinib or 2.5 μM + 0.05 μM, alone 2.5 μM Gefitinib, 0.2 μM Trametinib
  differentiation of TrkB cells (live cell images): not with either inhibitor applied separately

## Cc1cc(NC(=O)c2cccc(NC(=O)/C=C/CN(C)C)c2)ccc1Nc1nccc(-c2cccnc2)n1 [JNK inhibitor, JNK-IN-8]
SH-SY5Y-TrkA [1]
  Change in the DPD output ΔS: −0.07 ± 0.75
  DPD output S: −2.4 ± 0.7
SH-SY5Y-TrkB [2]; 72 hours
  Experimentally measured percentage of differentiated cells: 25% ± 4%
SH-SY5Y-TrkB [2]
  Experiment (biological outcome): No effect
SH-SY5Y-TrkA [3]; 72 hours
  Experimentally measured percentage of differentiated cells: 45% ± 5%
SH-SY5Y-TrkA [3]
  Experiment (biological outcome): No effect
SH-SY5Y-TrkB [4]
  Change in the DPD output ΔS: 0.23 ± 0.82
  DPD output S: 5.95 ± 0.56

## CC(=O)Nc1cccc(-n2c(=O)n(C3CC3)c(=O)c3c(Nc4ccc(I)cc4F)n(C)c(=O)c(C)c32)c1 [MEK inhibitor, Trametinib]
SH-SY5Y-TrkA [1]
  Change in the DPD output ΔS: −0.7 ± 0.4
  DPD output S: −3.0 ± 0.3
SH-SY5Y-TrkB [2]; 72 hours
  Experimentally measured percentage of differentiated cells: 20% ± 1%
SH-SY5Y-TrkA [3]; 72 hours
  Experimentally measured percentage of differentiated cells: 48% ± 3%
SH-SY5Y-TrkA [3]
  Experiment (biological outcome): No effect
TrkA cells; 45 min NGF stimulation
  Bad P Ser112 raw fluorescent intensity (RPPA): 0.2853
  Bad P Ser136 raw fluorescent intensity (RPPA): 0.07024
  Bak raw fluorescent intensity (RPPA): 0.0709
  CrkL P Tyr207 raw fluorescent intensity (RPPA): 0.1174
  HSP27 (HSPB1) P Ser78 raw fluorescent intensity (RPPA): 0.04349
  JAK1 raw fluorescent intensity (RPPA): 0.0516
SH-SY5Y-TrkB [4]
  Change in the DPD output ΔS: 0.35 ± 0.72
  DPD output S: 6.1 ± 0.4

## Oc1c2ccccc2c2c3c(cccc13)N=N2 [Trk inhibitor, SP600125]
SH-SY5Y-TrkA [1]
  Change in the DPD output ΔS: −2.53 ± 0.35
  DPD output S: −4.84 ± 0.16
SH-SY5Y-TrkB [2]; 72 hours
  Experimentally measured percentage of differentiated cells: 55% ± 4%
SH-SY5Y-TrkA [3]; 72 hours
  Experimentally measured percentage of differentiated cells: 64.4% ± 2.5%
phospho-Trk [5]; 10 min ligand stimulation
  phospho-Trk: 0.8871 and 0.6065
phospho-Trk [5]; 45 min ligand stimulation
  phospho-Trk: 0.724
SH-SY5Y-TrkB [4]
  Change in the DPD output ΔS: −9.6 ± 0.6
  DPD output S: −3.84 ± 0.03
phospho-Trk [6]; 10 min ligand stimulation
  phospho-Trk: 3.716 and 1.408
phospho-Trk [6]; 45 min ligand stimulation
  phospho-Trk: 3.539

## Cn1cc(-c2ccc(F)c(C(F)(F)F)c2)nc1C1CCN(c2ncnc3[nH]ncc23)CC1 [p70S6K inhibitor, LY2584702]
SH-SY5Y-TrkA [1]
  Change in the DPD output ΔS: −1.5 ± 0.4
  DPD output S: −3.8 ± 0.3
SH-SY5Y-TrkB [2]; 72 hours
  Experimentally measured percentage of differentiated cells: 45% ± 3%
SH-SY5Y-TrkA [3]; 72 hours
  Experimentally measured percentage of differentiated cells: 41% ± 5%
TrkA cells; 10 min NGF stimulation
  Bad P Ser112 raw fluorescent intensity (RPPA): 0.1181
  Bad P Ser136 raw fluorescent intensity (RPPA): 0.109
  Bak raw fluorescent intensity (RPPA): 0.211
  CrkL P Tyr207 raw fluorescent intensity (RPPA): 0.2814
  HSP27 (HSPB1) P Ser78 raw fluorescent intensity (RPPA): 0.2939
  JAK1 raw fluorescent intensity (RPPA): 0.1005
SH-SY5Y-TrkB [4]
  Change in the DPD output ΔS: −7.8 ± 0.6
  DPD output S: −2.10 ± 0.05

## CC(C)CCN1c2nc(Nc3cc(F)c(O)c(F)c3)ncc2N(C)C(=O)C1C (stereo not shown) [p90RSK inhibitor, BI-D1870]
SH-SY5Y-TrkA [1]
  Change in the DPD output ΔS: 1.8 ± 0.3
  DPD output S: −0.54 ± 0.13
SH-SY5Y-TrkB [2]; 72 hours
  Experimentally measured percentage of differentiated cells: 29% ± 4%
SH-SY5Y-TrkB [2]
  Experiment (biological outcome): weakly increasing differentiation
SH-SY5Y-TrkA [3]; 72 hours
  Experimentally measured percentage of differentiated cells: 37.0% ± 2.4%
SH-SY5Y-TrkA [3]
  Experiment (biological outcome): decreasing differentiation
TrkB cells
  Bad P Ser112 raw fluorescent intensity (RPPA): 0.103
  Bad P Ser136 raw fluorescent intensity (RPPA): 0.07225
  Bak raw fluorescent intensity (RPPA): 0.1888
  CrkL P Tyr207 raw fluorescent intensity (RPPA): 0.2852
  HSP27 (HSPB1) P Ser78 raw fluorescent intensity (RPPA): 0.3221
  JAK1 raw fluorescent intensity (RPPA): 0.1064
SH-SY5Y-TrkB [4]
  Change in the DPD output ΔS: −1.7 ± 0.6
  DPD output S: 4.0 ± 0.2
SH-SY5Y-TrkB [4]; TrkB cells, 45 min 100 ng/ml GF stimulation
  Perturbation vector component collinear with the STV: moves the proliferation state towards differentiation

## NGF: TrkA ligand, growth factor
SH-SY5Y-TrkA [3]; TrkA cells, 100 ng/ml, 72 hours
  cell fate after growth factor treatment: differentiation

B1: BDNF: TrkB ligand, growth factor (protein, UniProt P23560 19-247, looked up)
Neurotrophic factor BDNF …: APMKEANIRGQGGLAYPGVRTHGTLESVNGPKAGSRGLTSLADTFEHVIEELLDEDQKVRPNEENNKDADLYTSRVMLSSQVPLEPPLLFLLEEYKNYLDAANMSMRVRRHSDPARRGELSVCDSISEWVTAADKKTAVDMSGGTVTVLEKVPVSKGQLKQYFYETKCNPMGYTKEGCRGIDKRHWNSQCRTTQSYVRALTMDSKKRIGWRFIRIDTSCVCTLTIKRGR
SH-SY5Y-TrkB [2]; TrkB cells, 100 ng/ml, 72 hours
  cell fate after growth factor treatment: proliferation
